US20110152362A1, “METHODS OF TREATING EPILEPTOGENESIS AND EPILEPSY” (priority 2004, published 2011)
Marks after values point to notes of the source that are not given here.

Key:
[1] = system: rats subjected to li-pilo SE; test: Example 2: quantification of cell densities 14 days after li-pilo SE; conditions: 14 days after li-pilo SE;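 note: Thionine-stained 20 µm brain sections, neurons with cell bodies above 10 µm counted, value is the mean of 12 fields per structure from three adjacent sections, both sides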
Experimental: All rats received lithium chloride (3 meq/kg, i.p., Sigma, St Louis, Mo., U.S.A.) and about 20 h later, all animals received also methylscopolamine bromide (1 mg/kg, s.c., Sigma) that was administered to limit the peripheral effects of the convulsant. […] The effects of increasing doses of TC were studied in 5 groups of rats. […] The control group received vehicle instead of pilocarpine and TC.
For neuronal counting, animals were deeply anesthetized with 1.8 g/kg pentobarbital (Dolethal®, Vetoquinol, Lure, France). Brains were then removed and frozen. Serial 20 μm slices were cut in a cryostat, air-dried during several days before thionine staining. […] The grid of counting was placed on a well defined area of the cerebral structure of interest and counting was carried out with a microscopic enlargement of 200- or 400-fold defined for each single cerebral structure. Cell counts were performed twice on each side of three adjacent sections for each region by a single observer unaware of the animal's treatment. The number of cells obtained in the 12 counted fields in each cerebral structure was averaged. This procedure was used to minimize the potential errors that could result from double counting leading to overestimation of cell numbers. […] Counts involved only neurons with cell bodies larger than 10 μm. Cells with small cell bodies were considered as glial cells and were not counted.
For neuronal damage and epileptogenesis, statistical analysis between groups was performed by means of a one-way analysis of variance followed by a post-hoc Dunnett or Fisher test using the Statistica software.

[2] = Blood levels in humans, oral administration of Test Compound for 7 days (toxicology studies); type: in vivo, human; conditions: for Cmax at 7 days: blood; for Cmax at 7 days / AUC (0-24): human
From the text: In toxicology studies in humans, oral administration of Test Compound at various doses for 7 days produced the following C max's and AUC (0-24): […]

[3] = system: rats subjected to Li-pilo induced SE; test: Example 1: Timm staining, mossy fiber sprouting in hippocampus; type: in vivo, rat; conditions: for Timm score: 60 mg/kg
Experimental: At 2 months after the onset of spontaneous recurrent seizures, mossy fiber sprouting was examined on rats in the chronic period exposed to the test compound or DZP and in 3 saline-saline rats. Animals were deeply anaesthetized and perfused transcardially with saline followed by 100 ml of 1.15% (w/v) Na2S in 0.1 M phosphate buffer, and 100 ml of 4% (v/v) formaldehyde in 0.1 M phosphate buffer. Brains were removed from skull, post-fixed in 4% formaldehyde during 3-5 h and 40 μm sections were cut on a sliding vibratome and mounted on gelatin-coated slides.
The following day, sections were developed in the dark in a 26° C. solution of 50% (w/v) arabic gum (160 ml), sodium citrate buffer (30 ml), 5.7% (w/v) hydroquinone (80 ml) and 10% (w/v) silver nitrate (2.5 ml) during 40-45 min. The sections were then rinsed with tap water at 40° C. during at least 45 min, rinsed rapidly with distilled water and allowed to dry. They were dehydrated in ethanol and coverslipped.
Mossy fiber sprouting was evaluated according to criteria previously described in dorsal hippocampus (Cavazos et al., 1991, J Neurosci 11:2795-2803.), which are follows: 0—no granules between the tips and crest of the DG; 1—sparse granules in the supragranular region in a patchy distribution between the tips and crest of DG; 2—more numerous granules in a continuous distribution between the tips and crest of DG; 3—prominent granules in a continuous pattern between tips and crest, with occasional patches of confluent granules between tips and crest; 4—prominent granules that form a confluent dense laminar band between tips and crest and 5—confluent dense laminar band of granules that extends into the inner molecular layer.

NC(=O)OC[C@@H](O)c1ccccc1Cl [TC]
number of neuronal cell bodies: Thalamus Mediodorsal central ([1]; pilo-TC60 (TC 60 mg/kg)): 24.1 ± 1**^ | number of neuronal cell bodies: Thalamus Mediodorsal lateral ([1]; pilo-TC60 (TC 60 mg/kg)): 18.9 ± 0.6 | number of neuronal cell bodies: Thalamus Mediodorsal medial ([1]; pilo-TC60 (TC 60 mg/kg)): 19.1 ± 2.6 | number of neuronal cell bodies: Amygdala Basolateral ([1]; pilo-TC90 (TC 90 mg/kg)): 40.7 ± 1.6°° | number of neuronal cell bodies: Amygdala Medial, dorsal anterior ([1]; pilo-TC90 (TC 90 mg/kg)): 72.2 ± 5.7°° | number of neuronal cell bodies: Amygdala Medial, ventral posterior ([1]; pilo-TC90 (TC 90 mg/kg)): 30.7 ± 3.7°° | number of neuronal cell bodies: Cerebral cortex Entorhinal, layer II, dorsal ([1]; pilo-TC90 (TC 90 mg/kg)): 26.3 ± 0.9 | number of neuronal cell bodies: Cerebral cortex Entorhinal, layer II, ventral ([1]; pilo-TC90 (TC 90 mg/kg)): 25.4 ± 1.1°^ | number of neuronal cell bodies: Cerebral cortex Entorhinal, layer III/IV, dorsal ([1]; pilo-TC90 (TC 90 mg/kg)): 26.7 ± 0.8 | number of neuronal cell bodies: Cerebral cortex Entorhinal, layer III/IV, ventral ([1]; pilo-TC90 (TC 90 mg/kg)): 23.7 ± 1.5°° | number of neuronal cell bodies: Cerebral cortex Piriform, layer II, dorsal ([1]; pilo-TC90 (TC 90 mg/kg)): 32.4 ± 1.1°° | number of neuronal cell bodies: Cerebral cortex Piriform, layer II, ventral ([1]; pilo-TC90 (TC 90 mg/kg)): 18.4 ± 4.0°° | number of neuronal cell bodies: Cerebral cortex Piriform, layer III ([1]; pilo-TC90 (TC 90 mg/kg)): 9 ± 3.0°° | number of neuronal cell bodies: Hippocampus CA1 area ([1]; pilo-TC90 (TC 90 mg/kg)): 47.7 ± 6.6*° | number of neuronal cell bodies: Hippocampus CA3 area ([1]; pilo-TC90 (TC 90 mg/kg)): 35.1 ± 2.9 | number of neuronal cell bodies: Hippocampus Hilus ([1]; pilo-TC90 (TC 90 mg/kg)): 37.5 ± 3.1 | number of neuronal cell bodies: Thalamus Central medial ([1]; pilo-TC90 (TC 90 mg/kg)): 88.2 ± 8.5^ | number of neuronal cell bodies: Thalamus Dorsolateral, medial, dorsal ([1]; pilo-TC90 (TC 90 mg/kg)): 79.4 ± 3.1**°° | number of neuronal cell bodies: Thalamus Dorsolateral, ventral lateral ([1]; pilo-TC90 (TC 90 mg/kg)): 71.8 ± 5.3°°* | number of neuronal cell bodies: Thalamus Mediodorsal central ([1]; pilo-TC90 (TC 90 mg/kg)): 27.4 ± 1.5^ | number of neuronal cell bodies: Thalamus Mediodorsal lateral ([1]; pilo-TC90 (TC 90 mg/kg)): 22 ± 1.2*° | number of neuronal cell bodies: Thalamus Mediodorsal medial ([1]; pilo-TC90 (TC 90 mg/kg)): 23.1 ± 2.8°° | number of neuronal cell bodies: Amygdala Basolateral ([1]; pilo-TC120 (TC 120 mg/kg)): 42.7 ± 1.3°° | number of neuronal cell bodies: Amygdala Medial, dorsal anterior ([1]; pilo-TC120 (TC 120 mg/kg)): 80.2 ± 2.6°° | number of neuronal cell bodies: Amygdala Medial, ventral posterior ([1]; pilo-TC120 (TC 120 mg/kg)): 34.7 ± 1.7°° | number of neuronal cell bodies: Cerebral cortex Entorhinal, layer II, dorsal ([1]; pilo-TC120 (TC 120 mg/kg)): 27.3 ± 0.5°° | number of neuronal cell bodies: Cerebral cortex Entorhinal, layer II, ventral ([1]; pilo-TC120 (TC 120 mg/kg)): 25.1 ± 0.6^ | number of neuronal cell bodies: Cerebral cortex Entorhinal, layer III/IV, dorsal ([1]; pilo-TC120 (TC 120 mg/kg)): 26.4 ± 0.7°° | number of neuronal cell bodies: Cerebral cortex Entorhinal, layer III/IV, ventral ([1]; pilo-TC120 (TC 120 mg/kg)): 24.5 ± 1.4°° | number of neuronal cell bodies: Cerebral cortex Piriform, layer II, dorsal ([1]; pilo-TC120 (TC 120 mg/kg)): 35.2 ± 1.1°° | number of neuronal cell bodies: Cerebral cortex Piriform, layer II, ventral ([1]; pilo-TC120 (TC 120 mg/kg)): 30.5 ± 1.3°° | number of neuronal cell bodies: Cerebral cortex Piriform, layer III ([1]; pilo-TC120 (TC 120 mg/kg)): 15 ± 2.2°° | number of neuronal cell bodies: Hippocampus CA1 area ([1]; pilo-TC120 (TC 120 mg/kg)): 65.5 ± 2.9°° | number of neuronal cell bodies: Hippocampus CA3 area ([1]; pilo-TC120 (TC 120 mg/kg)): 39.8 ± 1.5 | number of neuronal cell bodies: Hippocampus Hilus ([1]; pilo-TC120 (TC 120 mg/kg)): 44.8 ± 2.9 | number of neuronal cell bodies: Thalamus Central medial ([1]; pilo-TC120 (TC 120 mg/kg)): 108.2 ± 6.6° ^ | number of neuronal cell bodies: Thalamus Dorsolateral, medial, dorsal ([1]; pilo-TC120 (TC 120 mg/kg)): 89.8 ± 3.7*° | number of neuronal cell bodies: Thalamus Dorsolateral, ventral lateral ([1]; pilo-TC120 (TC 120 mg/kg)): 79.0 ± 4.7°° | number of neuronal cell bodies: Thalamus Mediodorsal central ([1]; pilo-TC120 (TC 120 mg/kg)): 29.9 ± 1.7°^ | number of neuronal cell bodies: Thalamus Mediodorsal lateral ([1]; pilo-TC120 (TC 120 mg/kg)): 24.4 ± 1.1°° | number of neuronal cell bodies: Thalamus Mediodorsal medial ([1]; pilo-TC120 (TC 120 mg/kg)): 28.6 ± 0.8°° | tolerability in humans ([2]; 750 mg twice a day (1500 mg/day)): easily tolerated | Cmax at 7 days ([2]; oral 100 mg b.i.d. for 7 days): 3600 ng/mL | Cmax at 7 days ([2]; oral 250 mg b.i.d. for 7 days): 8200 ng/mL | Cmax at 7 days ([2]; oral 500 mg b.i.d. for 7 days): 17200 ng/mL | Cmax at 7 days ([2]; oral 750 mg b.i.d. for 7 days): 28200 ng/mL | AUC (0-24) ([2]; oral 100 mg b.i.d. for 7 days): 42.2 micrograms-hour/mL | AUC (0-24) ([2]; oral 250 mg b.i.d. for 7 days): 102.3 micrograms-hour/mL | AUC (0-24) ([2]; oral 500 mg b.i.d. for 7 days): 204.1 micrograms-hour/mL | AUC (0-24) ([2]; oral 750 mg b.i.d. for 7 days): 322.7 micrograms-hour/mL | Timm score ([3]; subgroup with early SRS occurrence): 1.8±0.6 | Timm score ([3]; subgroup with late occurrence or absence of SRS): 1.2±0.6 | Timm score in the upper blade of the dentate gyrus, mean ([3]; pilo-TC10 rats): 1.5±0.6 | Timm score in the upper blade of the dentate gyrus, mean ([3]; pilo-TC30 rats): 2.6±1.0 | Timm score in the upper blade of the dentate gyrus, mean ([3]; whole group of pilo-TC60 rats): 1.5±0.7
